Key:
Assay type in all cases: in vivo
[1] = test system: Amaranthus retoflexus (AMARE); experiment: B2 Post-Emergence Efficacy—Test 2; conditions: post-emergence application, 250 g/ha, evaluated after 13 days (Test 2)
In short: (§1)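 Post-emergence spray, 250 g/ha, acetone/water 50:50 + 0.5% Tween 20, on 8-day-old pot plants; glasshouse 24/16 °C, 14 h light, 65% RH, watered twice daily. Damage % read at 13 d, scored 1–5 (1=0-19%, 5=80-100%).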

[2] = test system: Echinochloa crus-galli (ECHCG); experiment: B2 Post-Emergence Efficacy—Test 2; conditions: post-emergence application, 250 g/ha, evaluated after 13 days (Test 2)
In short: as §1

[3] = test system: Ipomoea hederacea (IPOHE); experiment: B2 Post-Emergence Efficacy—Test 2; conditions: post-emergence application, 250 g/ha, evaluated after 13 days (Test 2)
In short: as §1

Lolium perenne (LOLPE) [4] = experiment: B2 Post-Emergence Efficacy—Test 2; conditions: post-emergence application, 250 g/ha, evaluated after 13 days (Test 2)
In short: as §1

Setaria faberi (SETFA) [5] = experiment: B2 Post-Emergence Efficacy—Test 2; conditions: post-emergence application, 250 g/ha, evaluated after 13 days (Test 2)
In short: as §1

Solanum nigrum (SOLNI) [6] = experiment: B2 Post-Emergence Efficacy—Test 2; conditions: post-emergence application, 250 g/ha, evaluated after 13 days (Test 2)
In short: as §1

[7] = test system: Amaranthus retoflexus (AMARE); experiment: B5 Pre-Emergence Efficacy—Test 2; conditions: 250 g/ha, evaluated after 13 days
In short: (§2)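 Damage rated 13 days after treatment on a 1–5 scale (1=0-19%, 5=80-100%). Compounds applied at 250 g/ha as an acetone/water (50:50) spray containing 0.5% Tween 20, one day after sowing in soil, with glasshouse conditions of 24/16° C, 14 h light and 65% humidity.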

Solanum nigrum (SOLNI) [8] = experiment: B5 Pre-Emergence Efficacy—Test 2; conditions: 250 g/ha, evaluated after 13 days
In short: as §2

[9] = test system: Echinochloa crus-galli (ECHCG); experiment: B5 Pre-Emergence Efficacy—Test 2; parameters: key: 5-point scale: 5=80-100%, 4=60-79%, 3=40-59%, 2=20-39%, 1=0-19% damage; conditions: 250 g/ha, evaluated after 13 days
In short: as §2

[10] = test system: Ipomoea hederacea (IPOHE); experiment: B5 Pre-Emergence Efficacy—Test 2; parameters: key: 5-point scale: 5=80-100%, 4=60-79%, 3=40-59%, 2=20-39%, 1=0-19% damage; conditions: 250 g/ha, evaluated after 13 days
In short: as §2

Lolium perenne (LOLPE) [11] = experiment: B5 Pre-Emergence Efficacy—Test 2; parameters: key: 5-point scale: 5=80-100%, 4=60-79%, 3=40-59%, 2=20-39%, 1=0-19% damage; conditions: 250 g/ha, evaluated after 13 days
In short: as §2

Setaria faberi (SETFA) [12] = experiment: B5 Pre-Emergence Efficacy—Test 2; parameters: key: 5-point scale: 5=80-100%, 4=60-79%, 3=40-59%, 2=20-39%, 1=0-19% damage; conditions: 250 g/ha, evaluated after 13 days
In short: as §2

| SMILES | percentage damage caused to the plant, five point scale, AMARE [1] | percentage damage caused to the plant, five point scale, ECHCG [2] | percentage damage caused to the plant, five point scale, IPOHE [3] | percentage damage caused to the plant, five point scale, LOLPE (Lolium perenne (LOLPE) [4]) | percentage damage caused to the plant, five point scale, SETFA (Setaria faberi (SETFA) [5]) | percentage damage caused to the plant, five point scale, SOLNI (Solanum nigrum (SOLNI) [6]) | Control of weed species after pre-emergence application, AMARE (percentage damage, five point scale) [7] | Control of weed species after pre-emergence application, SOLNI (percentage damage, five point scale) (Solanum nigrum (SOLNI) [8]) | Control of weed species after pre-emergence application, ECHCG (percentage damage, five point scale) [9] | Control of weed species after pre-emergence application, IPOHE (percentage damage, five point scale) [10] | Control of weed species after pre-emergence application, LOLPE (percentage damage, five point scale) (Lolium perenne (LOLPE) [11]) | Control of weed species after pre-emergence application, SETFA (percentage damage, five point scale) (Setaria faberi (SETFA) [12]) |
| --- | --- | --- | --- | --- | --- | --- | --- | --- | --- | --- | --- | --- |
| Cc1nn(C)c(=O)c(-c2c(F)ccc(Cl)c2CCc2ccc(OC(C)(C)C)cc2)c1OC(=O)C(C)C [Compound A-3.035] | 5 (5=80-100%) | 4 (4=60-79%) | 5 (5=80-100%) | 5 (5=80-100%) | 5 (5=80-100%) | 5 (5=80-100%) | 4 (4=60-79%) | 5 (5=80-100%) | 4 (4=60-79%) | 5 (5=80-100%) | 5 (5=80-100%) | 5 (5=80-100%) |
| Cc1nn(C)c(=O)c(-c2c(F)ccc(Cl)c2CCc2ccc(C#N)cc2)c1OC(=O)C(C)C [Compound A-3.036, [5-[3-Chloro-2-[2-(4-cyanophenyl)ethyl]-6-fluoro-phenyl]-1,3-dimethyl-6-oxo-pyridazin-4-yl] 2-methylpropanoate] | 5 (5=80-100%) | 4 (4=60-79%) | 5 (5=80-100%) | 4 (4=60-79%) | 4 (4=60-79%) | 5 (5=80-100%) | 5 (5=80-100%) | 5 (5=80-100%) | 5 (5=80-100%) | 5 (5=80-100%) | 5 (5=80-100%) | 5 (5=80-100%) |
| Cc1nn(C)c(=O)c(-c2c(F)ccc(Cl)c2CCc2ccc(C3CC3)cc2)c1OC(=O)C(C)C [Compound A-3.038] | 5 (5=80-100%) | 2 (2=20-39%) | 5 (5=80-100%) | 5 (5=80-100%) | 5 (5=80-100%) | 5 (5=80-100%) | 5 (5=80-100%) | 5 (5=80-100%) | 2 (2=20-39%) | 5 (5=80-100%) | 5 (5=80-100%) | 1 (1=0-19%) |
| Cc1nn(C)c(=O)c(-c2c(F)ccc(Cl)c2/C=C/c2ccccc2C#N)c1OC(=O)C(C)C [Compound A-4.029] | 4 (4=60-79%) | 1 (1=0-19%) | 4 (4=60-79%) | 1 (1=0-19%) | 0 | 4 (4=60-79%) | 2 (2=20-39%) | 4 (4=60-79%) | 0 | 0 | 0 | 0 |
| Cc1nn(C)c(=O)c(-c2c(F)ccc(Cl)c2/C=C/c2cccc(C#N)c2)c1OC(=O)C(C)C [Compound A-4.030] | 2 (2=20-39%) | 1 (1=0-19%) | 3 (3=40-59%) | 1 (1=0-19%) | 0 | 3 (3=40-59%) | 3 (3=40-59%) | 4 (4=60-79%) | 1 (1=0-19%) | 1 (1=0-19%) | 2 (2=20-39%) | 1 (1=0-19%) |
| Cc1nn(C)c(=O)c(-c2c(F)ccc(Cl)c2/C=C/c2ccc(OC(C)(C)C)cc2)c1OC(=O)C(C)C [Compound A-4.035] | 1 (1=0-19%) | 0 | 3 (3=40-59%) | 0 | 0 | 3 (3=40-59%) | 0 | 0 | 1 (1=0-19%) | 1 (1=0-19%) | 1 (1=0-19%) | 0 |
| Cc1nn(C)c(=O)c(-c2c(F)ccc(Cl)c2/C=C/c2ccc(C#N)cc2)c1OC(=O)C(C)C [Compound A-4.036, [5-[3-Chloro-2-[(E)-2-(4-cyanophenyl)vinyl]-6-fluoro-phenyl]-1,3-dimethyl-6-oxo-pyridazin-4-yl] 2-methylpropanoate] | 2 (2=20-39%) | 3 (3=40-59%) | 4 (4=60-79%) | 3 (3=40-59%) | 1 (1=0-19%) | 5 (5=80-100%) | 2 (2=20-39%) | 5 (5=80-100%) | 1 (1=0-19%) | 3 (3=40-59%) | 1 (1=0-19%) | 0 |

— US12540120B2, “Herbicidal compounds” (SYNGENTA CROP PROTECTION AG, priority 2019, dated 2026)
